Molecules are shown by their SMILES.

This assay deals with mice. Briefly: Neuropharmacological assay (SmartCube), behavioral signature of compound-treated mice. The assay is classed as in vivo. To be noted: i.p. 15 min before behavioral test, most efficacious dose(s) of 3 doses. An outline of the steps: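 Mice received compound i.p. in NMP/PEG/propylene glycol vehicle at 3 doses, 15 min before testing. Video-captured behavior was algorithmically compared with a reference-drug signature database.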
With `Cc1cccc2c1[C@@H]([C@@H]1CCCN1)OCCC2` [Compound I-101, (S)-2-((S)-9-methyl-1,3,4,5-tetrahydrobenzo[c]oxepin-1-yl)pyrrolidine], the “AD: ADHD (probability that behavioral signature matches class)” value (“AD: ADHD” below) is “+ (LOQ ≤ + <5%)”, the “AG: analgesic (probability that behavioral signature matches class)” value (from here on “AG: analgesic”) was “+ (LOQ ≤ + <5%)”, the “AX: anxiolytic (probability that behavioral signature matches class)” value (“AX: anxiolytic” below) is listed as “++ (5% ≤ ++ <25%)” and the “CE: cognitive enhancer (probability that behavioral signature matches class)” value (“CE: cognitive enhancer” below) was “+ (LOQ ≤ + <5%)”. Also, the “DP: anti-depressant (probability that behavioral signature matches class)” value (“DP: anti-depressant” below) is listed as “++ (5% ≤ ++ <25%)”, the “HA: hallucinogen (probability that behavioral signature matches class)” value (“HA: hallucinogen” for short) is reported as “+ (LOQ ≤ + <5%)”, the “MS: mood stabilizer (probability that behavioral signature matches class)” value (shortened to “MS: mood stabilizer”) is “+ (LOQ ≤ + <5%)” and the “PS: anti-psychotic (probability that behavioral signature matches class)” value (shortened to “PS: anti-psychotic”) is “+ (LOQ ≤ + <5%)”. The “SD: sedative hypnotic (probability that behavioral signature matches class)” value (from here on “SD: sedative hypnotic”) is listed as “+ (LOQ ≤ + <5%)”, the “UN: uncharacterized CNS activity (probability that behavioral signature matches class)” value (“UN: uncharacterized CNS activity” below) is “+ (LOQ ≤ + <5%)” and the “XG: anxiogenic (probability that behavioral signature matches class)” value (from here on “XG: anxiogenic”) was “+ (LOQ ≤ + <5%)”.

As to `c1ccc2c(c1)CCCO[C@@H]2[C@H]1CCCN1` [Compound I-99, (R)-2-((S)-1,3,4,5-tetrahydrobenzo[c]oxepin-1-yl)pyrrolidine], the “AD: ADHD” value is on record as “+ (LOQ ≤ + <5%)”, the “AG: analgesic” value is on record as “++ (5% ≤ ++ <25%)”, the “AX: anxiolytic” value is “++ (5% ≤ ++ <25%)” and the “CE: cognitive enhancer” value was “++ (5% ≤ ++ <25%)”. Moreover, the “DP: anti-depressant” value is reported as “+++ (25% ≤ +++ <50%)”, the “HA: hallucinogen” value was “+ (LOQ ≤ + <5%)”, the “MS: mood stabilizer” value is reported as “+ (LOQ ≤ + <5%)” and the “PS: anti-psychotic” value was “++ (5% ≤ ++ <25%)”. Further, the “SD: sedative hypnotic” value is on record as “++ (5% ≤ ++ <25%)”, the “UN: uncharacterized CNS activity” value is “+ (LOQ ≤ + <5%)” and the “XG: anxiogenic” value was “+ (LOQ ≤ + <5%)”.

`COc1cccc2c1[C@@H]([C@@H]1CCCN1)OCC2` [Compound I-48, (S)-2-((S)-8-methoxyisochroman-1-yl)pyrrolidine]: the “AD: ADHD” value is “+ (LOQ ≤ + <5%)”, the “AG: analgesic” value is “+++ (25% ≤ +++ <50%)”, the “AX: anxiolytic” value is “++ (5% ≤ ++ <25%)” and the “CE: cognitive enhancer” value is “++ (5% ≤ ++ <25%)”. In addition, the “DP: anti-depressant” value is on record as “++ (5% ≤ ++ <25%)”, the “HA: hallucinogen” value is on record as “+ (LOQ ≤ + <5%)”, the “MS: mood stabilizer” value is on record as “+ (LOQ ≤ + <5%)” and the “PS: anti-psychotic” value is recorded as “++ (5% ≤ ++ <25%)”. The “SD: sedative hypnotic” value was “+ (LOQ ≤ + <5%)”, the “UN: uncharacterized CNS activity” value is “+ (LOQ ≤ + <5%)” and the “XG: anxiogenic” value is “+ (LOQ ≤ + <5%)”.

Turning to `FC1(F)CN[C@H]([C@@H]2OCCc3ccccc32)C1` [Compound I-64, (S)-4,4-difluoro-2-((R)-isochroman-1-yl)pyrrolidine], the “AD: ADHD” value is “+ (LOQ ≤ + <5%)”, the “AG: analgesic” value is “+ (LOQ ≤ + <5%)”, the “AX: anxiolytic” value is listed as “++ (5% ≤ ++ <25%)” and the “CE: cognitive enhancer” value was “+ (LOQ ≤ + <5%)”. Further, the “DP: anti-depressant” value was “+ (LOQ ≤ + <5%)”, the “HA: hallucinogen” value was “+ (LOQ ≤ + <5%)”, the “MS: mood stabilizer” value was “+ (LOQ ≤ + <5%)” and the “PS: anti-psychotic” value is recorded as “+ (LOQ ≤ + <5%)”. Further, the “SD: sedative hypnotic” value is given as “+ (LOQ ≤ + <5%)”, the “UN: uncharacterized CNS activity” value was “+ (LOQ ≤ + <5%)” and the “XG: anxiogenic” value is given as “+ (LOQ ≤ + <5%)”.

Turning to `CC1(C)CN[C@@H]([C@H]2OCCc3ccccc32)C1` [Compound I-62, (R)-2-((S)-isochroman-1-yl)-4,4-dimethylpyrrolidine], the “AD: ADHD” value is recorded as “+ (LOQ ≤ + <5%)”, the “AG: analgesic” value is given as “++ (5% ≤ ++ <25%)”, the “AX: anxiolytic” value is listed as “++ (5% ≤ ++ <25%)” and the “CE: cognitive enhancer” value was “+++ (25% ≤ +++ <50%)”. Further, the “DP: anti-depressant” value was “++ (5% ≤ ++ <25%)”, the “HA: hallucinogen” value is listed as “+ (LOQ ≤ + <5%)”, the “MS: mood stabilizer” value is on record as “+ (LOQ ≤ + <5%)” and the “PS: anti-psychotic” value is reported as “++ (5% ≤ ++ <25%)”. Also, the “SD: sedative hypnotic” value is “+ (LOQ ≤ + <5%)”, the “UN: uncharacterized CNS activity” value was “+ (LOQ ≤ + <5%)” and the “XG: anxiogenic” value was “+ (LOQ ≤ + <5%)”.

Turning to `c1ccc2c(c1)CCO[C@@H]2[C@@H]1CCCN1` [Compound I-17, (S)-2-((S)-isochroman-1-yl)pyrrolidine], the “AD: ADHD” value is recorded as “+ (LOQ ≤ + <5%)”, the “AG: analgesic” value is “+ (LOQ ≤ + <5%)”, the “AX: anxiolytic” value is given as “++ (5% ≤ ++ <25%)” and the “CE: cognitive enhancer” value was “++ (5% ≤ ++ <25%)”. Besides, the “DP: anti-depressant” value was “+++ (25% ≤ +++ <50%)”, the “HA: hallucinogen” value was “+ (LOQ ≤ + <5%)”, the “MS: mood stabilizer” value is on record as “+ (LOQ ≤ + <5%)” and the “PS: anti-psychotic” value is reported as “++ (5% ≤ ++ <25%)”. Further, the “SD: sedative hypnotic” value was “+ (LOQ ≤ + <5%)”, the “UN: uncharacterized CNS activity” value is reported as “+ (LOQ ≤ + <5%)” and the “XG: anxiogenic” value is given as “+ (LOQ ≤ + <5%)”.

On to `c1ccc2c(c1)CCCO[C@@H]2[C@@H]1CCCN1` [Compound I-97, (S)-2-((S)-1,3,4,5-tetrahydrobenzo[c]oxepin-1-yl)pyrrolidine], for which the “AD: ADHD” value is given as “+ (LOQ ≤ + <5%)”, the “AG: analgesic” value is “+++ (25% ≤ +++ <50%)”, the “AX: anxiolytic” value is recorded as “++ (5% ≤ ++ <25%)” and the “CE: cognitive enhancer” value is “++ (5% ≤ ++ <25%)”. Also, the “DP: anti-depressant” value is on record as “++ (5% ≤ ++ <25%)”, the “HA: hallucinogen” value is “+ (LOQ ≤ + <5%)”, the “MS: mood stabilizer” value is “++ (5% ≤ ++ <25%)” and the “PS: anti-psychotic” value is listed as “+++ (25% ≤ +++ <50%)”. Moreover, the “SD: sedative hypnotic” value is “++ (5% ≤ ++ <25%)”, the “UN: uncharacterized CNS activity” value is on record as “+ (LOQ ≤ + <5%)” and the “XG: anxiogenic” value is “+ (LOQ ≤ + <5%)”.

As for `CC1(C)Cc2ccccc2[C@H]([C@H]2CCCN2)O1` [Compound I-68, (R)-2-((R)-3,3-dimethylisochroman-1-yl)pyrrolidine], the “AD: ADHD” value was “+ (LOQ ≤ + <5%)”, the “AG: analgesic” value is listed as “+ (LOQ ≤ + <5%)”, the “AX: anxiolytic” value is on record as “+ (LOQ ≤ + <5%)” and the “CE: cognitive enhancer” value was “+ (LOQ ≤ + <5%)”. In addition, the “DP: anti-depressant” value is “+ (LOQ ≤ + <5%)”, the “HA: hallucinogen” value was “+ (LOQ ≤ + <5%)”, the “MS: mood stabilizer” value is “+ (LOQ ≤ + <5%)” and the “PS: anti-psychotic” value is “+ (LOQ ≤ + <5%)”. In addition, the “SD: sedative hypnotic” value is listed as “+ (LOQ ≤ + <5%)”, the “UN: uncharacterized CNS activity” value is reported as “+ (LOQ ≤ + <5%)” and the “XG: anxiogenic” value is listed as “+ (LOQ ≤ + <5%)”.

As to `c1c2c(cc3c1OCO3)[C@H]([C@@H]1CCCN1)OCC2` [Compound I-54, (S)-2-((R)-7,8-dihydro-5H-[1,3]dioxolo[4,5-g]isochromen-5-yl)pyrrolidine], the “AD: ADHD” value is given as “+ (LOQ ≤ + <5%)”, the “AG: analgesic” value is reported as “++ (5% ≤ ++ <25%)”, the “AX: anxiolytic” value was “+++ (25% ≤ +++ <50%)” and the “CE: cognitive enhancer” value is “++ (5% ≤ ++ <25%)”. In addition, the “DP: anti-depressant” value is reported as “+++ (25% ≤ +++ <50%)”, the “HA: hallucinogen” value is “+ (LOQ ≤ + <5%)”, the “MS: mood stabilizer” value is recorded as “++ (5% ≤ ++ <25%)” and the “PS: anti-psychotic” value is given as “++ (5% ≤ ++ <25%)”. Further, the “SD: sedative hypnotic” value was “+ (LOQ ≤ + <5%)”, the “UN: uncharacterized CNS activity” value was “+ (LOQ ≤ + <5%)” and the “XG: anxiogenic” value is recorded as “+ (LOQ ≤ + <5%)”.

The record behind these values is patent US10336732B2, “1-heterocyclyl isochromanyl compounds and analogs for treating CNS disorders” (Sunovion Pharmaceuticals Inc., priority 2015, dated 2019).
